One data set relates to rhesus monkeys. As to conditions: oral 300, 1,000, 3,000 mg/kg/day, 3 months; cited from earlier work.
Data set [1] has as its system SD rats. The note with it: oral 60, 200, 600 mg/kg/day, male and female; cited from earlier work.
Data set [2] can be described thus: Repeated 2-day administration after 1-2 weeks and halt of administration, motor functions. Format: in vivo, clinical subjects. From the text:
The administration of droxidopa to the clinical subjects was then halted, but the level of the improvement effect on motor functions was maintained.

The subject of data set [3] is guinea pigs (Hartley strain, male). The note with it: cited from earlier work.
For data set [4], the system named is SD rats. The note with it: cited from earlier work.
A further data set has as its system beagle dogs. The note with it: oral 125, 500, 2,000 mg/kg/day, 12 months; cited from earlier work.
The subject of the next data set is mice. The note with it: cited from earlier work.

Regarding `N[C@@H](C(=O)O)[C@H](O)c1ccc(O)c(O)c1` [L-threo-DOPS, (-)-(2R, 3R)-2-amino-3-hydroxy-3-(3,4-dihydroxyphenyl) propionic acid], the subacute toxicity findings result in the data set on rhesus monkeys is listed as “no abnormality was observed”. Moreover, the “mating rate, conception rate, nidation number, embryo/neonate death, teratogenic actions or fetal development” value in the data set with SD rats [1] was “no influence was observed”. The “cases with further improvement on repeated administration” value in data set [2] (5 cases re-dosed for 2 consecutive days after 1-2 weeks) was determined as 3 cases. Besides, the “level of the improvement effect on motor functions after administration was halted” value in data set [2] (after halting administration) is on record as “maintained”. In data set [3], the Endodermoreaction entry was “negative”, the PCA reaction entry is recorded as “negative”, the intra-gel sedimentation reaction entry was “negative” and the systemic anaphylaxis reaction result was “negative”. The “other influence, organ forming period” value in the data set on SD rats [4] (oral 60, 200, 600 mg/kg/day) is on record as “No other influence was observed”. Further, the findings in fetuses entry in the data set on SD rats [4] (oral, 200 mg/kg or higher, restorable after birth) was “lower body weights of fetuses and an increase in the occurrence of undulating ribs were observed”. For the same compound, the chronic toxicity findings result in the data set with beagle dogs is “no abnormality was observed”. For the same compound, in the data set on mice, the “mutagenicity, micronucleus testing” value was “no mutagenicity was observed”.

Source of the values: US5656669A, “Restorative neuropharmacological agent for motor and speech disturbance” (Sumitomo Pharmaceuticals Co., Ltd., priority 1994, dated 1997).
